Assay results reported in patent US10457700B2, “Platinum prodrugs and methods of making and using thereof” (UNIVERSITY OF GEORGIA RESEARCH FOUNDATION, INC., priority 2015, dated 2019).

Tests used:
[1] = tested on: A2780/CP70 cells; test: MTT cytotoxicity assay in cisplatin resistant A2780/CP70 cells; format: cell-based, human; settings: 72 h
Method: (§1) Human prostate cancer cell line PC3 and DU145 were procured from the American type culture collection (ATCC). Ovarian cancer A2780 cells were obtained from Prof, Robert Brown, Imperial College London. […] Cells were passed every 3 to 4 days and restarted from frozen stocks upon reaching 20 passages.
(§2) PC3, A2780, or A2780/CP70 cells (2000 cells/well/100 μL) were seeded on a 96-well plate in 100 μL of desired medium and incubated for 24 h. After 24 h, media was removed and fresh media was added. The cells were treated with different constructs at varying concentrations and incubated for 72 h at 37° C. in 5% CO2. The cells were then treated with 20 μL of MTT (5 mg/mL in PBS) for 5 h. The medium was removed, the cells were lysed with 100 μL of DMSO, and the absorbance of the purple formazan was recorded at 550 nm using a Bio-Tek Synergy HT microplate reader. The background absorbance for each well was measured at 800 nm. Each well was performed in triplicate. […] Cells were grown for 7 days in high glucose medium prior to the MTT experiment. Cytotoxicity was expressed as mean percentage increase relative to the unexposed control±SD. Control values were set at 0% cytotoxicity or 100% cell viability.

[2] = tested on: mitochondrial respiration of A2780/CP70 cells; test: MitoStress test, Seahorse XF24 (OCR); format: cell-based, human; settings: 1 μM, 24 h
Excerpt: Prior to the assay, XF sensor cartridges were hydrated. […] The parameters calculated included: basal respiration (baseline respiration minus antimycin-A post injection respiration), ATP turnover (baseline respiration minus oligomycin post injection respiration), maximal respiratory capacity (FCCP stimulated respiration minus antimycin-A post injection respiration) and reserve respiratory capacity (FCCP stimulated respiration minus baseline respiration).

[3] = tested on: PC3 cells; test: MTT cytotoxicity assay in PC3 cells; format: cell-based, human
Method: as §1, §2

[4] = tested on: intracellular GSH in A2780/CP70 cells; test: Cellular GSH assay with ThiolTracker Violet, flow cytometry; format: cell-based, human; settings: 10 μM, 12 h
Method: The ability of Platin-B to interact with intracellular GSH in A2780/CP70 cells was investigated using the ThiolTracker Violet GSH detection reagent. Specifically, A2780/CP70 cells (4×10^5 cells/well/2 mL) were plated onto 6 well culture plates and allowed to grow overnight. […] After 12 h, both the attached and detached cells were collected by trypsinization, washed with PBS, and resuspended in Dulbecco's PBS (D-PBS) containing Ca^2+ and Mg^2+, glucose, and sodium pyruvate. The cells were then incubated with 10 μM (final concentration) ThiolTracker Violet for 30 min at 37° C. The cells were then washed with D-PBS, resuspended in buffer, and immediately analyzed on a flow cytometer with 405 nm excitation and 525 nm emission filters. The ThiolTracker Violet stain is a highly thiol reactive fluorescent probe and can be utilized in effective detection of intracellular GSH by quantitative detection modalities such as flow cytometry.

[5] = tested on: GST enzyme; test: GST enzymatic substrate competitive assay / cellular GST activity assay; format: biochemical; settings: 50 or 100 μM, in buffer or A2780/CP70 cell lysates
Method: GST enzyme modulates GSH to attack on labile electrophilic halide containing molecules in cellular detoxification processes. […] GST enzymatic activity was evaluated by following the formation of GSH and 1-chloro-2,4-dinitrobenzene (CDNB) adduct.
This assay was performed according to the instruction given by the manufacturer (GST activity assay kit ab65326). AU the standard solutions were prepared as per the instruction. Samples were prepared in a total 50 μL volume with GST assay buffer, including a negative control with 50 μL of GST assay buffer only and a positive control (10 μL of GST positive control diluted to 1:50) and 40 μL of GST assay buffer only. Sample wells contained 10 μL of GST enzyme diluted to 1:50 and remaining of GST assay buffer. To each well, 5 μL GSH was added. 50 μL of substrate mix containing GST substrate CDNB (5 μL) was prepared. […] Then, 50 μL of substrate mix was added to each well including controls. The plate was stirred carefully to initiate the reaction and absorbance values were recorded once every minute at 340 nm using a plate reader to obtain 20 data points. GST activity was calculated through the kinetic plot obtained from the time (min) vs. optical density (OD340 nm) using the formula GST activity=ΔA340 min^−1/0.002777 μM·D/A, where D is the enzyme sample dilution factor and A is the enzyme sample volume added to each well. […]

[6] = Cyclic voltammetry, Pt(IV)/Pt(II) reduction potential; format: physicochemical; settings: 0.1 M KCl
Method: Redox potential of platinum (IV) prodrugs play important roles in regulating efficacy. The disclosed Pt(IV) prodrugs can be activated selectively by intracellular reduction, preferably at the tumor sites to reduce side effects. Redox potential is a measure of the ability of Pt(IV) compounds to form the active platinum (II) species. Electrochemical measurements on Platin-B were carried out in dimethylformamide (DMF)-phosphate buffered saline (PBS) at pH 6.0 and 7.4. Specifically, a conventional three-electrode set-up comprising a glassy carbon working electrode, platinum wire auxiliary electrode, and Ag/AgCl (3M KCl) reference electrode was used for electrochemical measurements. The electrochemical data were uncorrected for junction potentials. KCl was used as a supporting electrolyte. Platin-B (2 mM) solutions were prepared in 40% DMF phosphate buffered saline (PBS) of pH 6.0 and 7.4 with 0.1 M KCl and voltammograms were recorded at different scan rates.

[7] = tested on: A2780/CP70 cells; test: Apoptosis detection by Annexin V-PI assay; format: cell-based, human; settings: 50 μM, 12 h
Method: Enhanced activity of Platin-B in A2780/CP70 cells was further confirmed by Annexin-V-propidium iodide (PI) apoptosis-necrosis assay. […] The cells were trypsinized, repeatedly washed collecting the supernatants, and centrifuged at 754×g for 3 min, and the supernatants were collected. Cell density was determined and cells were resuspended in 1× annexinV-binding buffer to 1×10^6 cells/mL preparing a sufficient volume to have 100 μL per assay. To 100 μL of cell suspension, 5 μL ALEXA FLUOR™ 488 annexin V and 1 μL of 100 μg/mL PI working solution were added, incubated for 15 min at room temperature. After the incubation period, 400 μL of 1× annexin-binding buffer was added to each sample, samples were gently mixed keeping the samples on ice, and the samples were analyzed on the flow cytometer immediately.

[8] = tested on: citrate synthase activity in A2780/CP70 cells; test: Citrate synthase activity assay; format: cell-based, human; settings: 1 μM, 24 h
Method: Citrate synthase activity assay was performed by following the instruction given in MitoCheck Citrate Synthase Activity assay kit (Cayman item no. 701040). Briefly, A2780/CP70 cells were seeded at a density of 1.2×10^6 cells/7 mL in 25 cm^2 cell culture flask and grown overnight. […] The cells were then scraped in presence of fresh media and centrifuged to obtain the cell pellet. The resultant pellet was washed 2 times with 1×PBS and solubilized in 200 μL extraction buffer. This cell suspension was incubated on ice for 20 min followed by centrifugation at 16000×g for 20 minutes at 4° C. The supernatant was collected and used for measuring the citrate synthase activity after 1:200 dilutions. Protein concentration in the samples was measured using BCA assay. […] Finally 20 μL of the substrate oxaloacetate from tube B was added to each well and absorbance was recorded immediately at 412 nm (50 seconds interval for 30 min at room temperature). The citrate synthase activity was calculated through the kinetic plot obtained from the time (min) vs. optical density (OD=412 nm) using the formula: CS Activity=(ΔA412 min−1/5.712 mM−×0.1 mL/0.03 mL)×sample dilution nmoles/min/mL. […]

Structure (SMILES)	IC50 [1] [µM]	effect on mitochondrial respiration (OCR) [2]	IC50 ([3]; 72 h) [µM]	effect on intracellular GSH levels [4]	GSH conjugation catalyzed by GST [5]	Pt(IV)/Pt(II) couple reduction potential ([6]; pH 6.0, 40% DMF-PBS)	Pt(IV)/Pt(II) couple reduction potential ([6]; pH 7.4, 40% DMF-PBS)	sensitivity of resistant cells (Annexin V-PI apoptosis-necrosis) [7]	mitochondrial content by citrate synthase activity [8]	IC50 ([1]; Homo sapiens) [µM]	IC50 ([3]; Homo sapiens, PC-3, 72 h) [µM]
N.N.[Cl][Pt][Cl] [Cisplatin, cis-diamminedichloridoplatinum(II), reference compound]	14.7 ± 0.9	did not demonstrate such activities	14.4 ± 1.6	minimal effect	–	–	–	–	–	–	–
[NH2][Pt]([NH2])([Cl])([Cl])([O]C(=O)CCCCCBr)[O]C(=O)CCCCCBr [Platin-B]	–	inhibited mitochondrial respiration significantly	–	enhanced ability to reduce GSH levels	more efficient	~−0.187 V vs. normal hydrogen electrode (NHE)	~−0.217 V vs. normal hydrogen electrode (NHE)	high degree of sensitivity	lower mitochondrial content	–	–
O=C(O)CCCCCBr [6-BH, 6-bromohexanoic acid]	–	–	–	–	–	–	–	–	–	> 100	> 100
